The values that follow come from patent publication US20030215462A1, “Use of UGT inhibitors to increase bioavailability” (priority 2001, published 2003).

Broadly, the AUC(0-t) is exposure summed from dosing to a finite time, without extrapolation to infinity. By solubility is commonly meant the concentration that dissolves in the medium under given conditions. As a reminder, the Km is the concentration of substrate that gives half-maximal velocity.

Data set [1] deals with T1, UGT enzymes of human liver microsomes (Homo sapiens, UniProt P16662).
T1 construct: residual metabolism (percentage of control), zidovudine glucuronidation; other: liver lot 062101; residual metabolism (percentage of control), zidovudine glucuronidation; residual metabolism (percentage of control)
T1 sequence (P16662 1-529): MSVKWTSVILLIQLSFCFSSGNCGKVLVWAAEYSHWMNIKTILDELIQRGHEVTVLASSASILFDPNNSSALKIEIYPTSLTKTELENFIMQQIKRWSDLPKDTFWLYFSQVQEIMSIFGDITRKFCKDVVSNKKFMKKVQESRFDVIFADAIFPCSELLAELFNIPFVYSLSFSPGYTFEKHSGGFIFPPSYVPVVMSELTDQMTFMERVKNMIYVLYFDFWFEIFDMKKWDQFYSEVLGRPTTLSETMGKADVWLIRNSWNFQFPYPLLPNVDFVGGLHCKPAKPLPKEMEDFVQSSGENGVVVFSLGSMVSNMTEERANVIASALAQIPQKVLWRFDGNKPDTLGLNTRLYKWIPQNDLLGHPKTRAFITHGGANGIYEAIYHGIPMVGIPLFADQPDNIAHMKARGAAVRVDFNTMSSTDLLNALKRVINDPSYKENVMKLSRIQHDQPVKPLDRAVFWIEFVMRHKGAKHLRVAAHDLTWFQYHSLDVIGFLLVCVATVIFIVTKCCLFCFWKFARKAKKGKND
Description: Inhibition of zidovudine glucuronidation in human liver microsomes. Type of data set: biochemical. The conditions noted are these: liver lot 062101. The procedure: Compounds were eluted using a binary solvent gradient system where solvent A was dilute phosphoric acid (pH 3) and solvent B was acetonitrile.
Standardized incubations utilized 500 μM zidovudine substrate, 1 mg/ml microsomal protein, 5 mM UDPGA and a 30 min incubation time. […] Int.

For data set [2], the system named is UGT enzymes of human liver microsomes. Description: Inhibition of 2ME2 glucuronidation (MG1, MG2) in human liver microsomes. Type of data set: biochemical. Conditions: liver 062101, 2ME2 50 μM. The text has this: (§1) Compounds were eluted using a binary solvent gradient system where solvent A was dilute phosphoric acid (pH 3) and solvent B was 80:20 acetonitrile-methanol. […] Detection was at 280 nm.
(Liver microsomes are a subcellular fraction often used to study metabolism.)

For data set [3], the system named is T2, UGT enzymes of human liver microsomes.
T2 construct: other: liver 062101
The description is as above. Format: biochemical. Conditions: liver 062101, 2ME2 50 μM.
Source text: as §1

Data set [4] relates to UGT enzymes of pooled human jejunum microsomes. Description: Inhibition of 2ME2 glucuronidation (MG1) in pooled human jejunum microsomes. Type of data set: biochemical. The conditions noted are these: jejunum HJ61, 2ME2 50 μM.
Source text: as §1

The nature of another data set: in vivo. Conditions: female, Sprague-Dawley, rat, po, 10 mg/kg. The procedure:
Female Sprague-Dawley rats (220-250 g body weight) with cannulae inserted into the jugular vein were purchased from Hilltop Animals Inc. (Scottsdale, Pa.). Catheter patency was maintained using a heparin lock. Animals were individually housed at 18-26° C. and allowed free movement and access to water. Rats were fed standard Laboratory Rodent Diet during a minimum 1-day acclimatization period but were fasted from at least 8 h prior to dose administration and were not administered food throughout the study.
Immediately prior to treatment, the ethanol was removed by nitrogen evaporation and rats were administered 1 ml/kg of each emulsion using a standard gavage needle. […] Blood volume was replaced with saline after each sample. Whole blood samples were collected in Microtainer® tubes (Becton-Dickinson, Franklin Lakes, N.J.) containing sodium EDTA anti-coagulant. Erythrocytes were precipitated by centrifugation (2800 rpm×10-20 min) and plasma samples were stored in the freezer prior to extraction and analysis.
Plasma samples (100 μl) were extracted by vortex mixing for 60 sec with 200 μl extraction solvent (80% acetonitrile 20% 2 mM NH4OAc pH 9) and 20 μl internal standard solution (1 μM tamoxifen in methanol). […] The lower limit of quantitation was 2 ng/ml.

Data set [5] can be described thus: Solubility in microsomal incubation mixtures.
Data set [6] concerns T3, UGT enzymes of human liver microsomes.
T3 construct: percentage of control metabolism, 7-HFC glucuronidation; percentage of control metabolism, 7-HFC glucuronidation
Description: Inhibition of 7-HFC glucuronidation in human liver microsomes. Format: biochemical. The conditions noted are these: inhibitor 500 μM; 7-HFC 50 μM, human liver microsomes 100 μg/ml, 15 min.

Data set [7] deals with UGT enzymes of human liver microsomes. Description: Inhibition of raloxifene glucuronidation (G1, G2) in human liver microsomes. Type of data set: biochemical. The text has this:
Compounds were eluted using a binary solvent gradient system. […] Solvent B was methanol. […] Detection was at 280 nm.

Data set [8] deals with human liver microsomes. Conditions: cited from earlier work.
The conditions of data set [9]: humans; cited from earlier work.
The subject of data set [10] is human liver microsomes. The data set is described as follows: Glucuronidation of UGT substrates by human liver microsomes. Conditions: for substrate loss, 2ME2: 2ME2 50 μM.
Data set [11] has as its system pooled human jejunum microsomes. The data set is described as follows: Glucuronidation of UGT substrates by pooled human jejunum microsomes. Conditions: jejunum HJ61, 50 μg/ml; 2ME2 50 μM.

In brackets after ≈: the same amount, converted by molar mass. Several values for one entry are separate records, joined by “and”; a condition that tells them apart may be missing. Identical values can stand only once.

Consider `O=C(c1ccc(OCCN2CCCCC2)cc1)c1c(-c2ccc(O)cc2)sc2cc(O)ccc12` [Raloxifene, raloxifene, reference compound], for which the “residual metabolism (percentage of control), zidovudine glucuronidation” value is on record as 76 (3) % in data set [1] (inhibitor 100 μM) and 32 (4) % in data set [1] (inhibitor 200 μM). For the same molecule, the “residual metabolism (% of control), 2ME2 MG1” value is given as 77 (1) % in data set [2] (inhibitor 5 μM); 63 (1) % in data set [2] (inhibitor 10 μM); 42 (0) % in [3] (inhibitor 25 μM); 32 (2) % in data set [3] (inhibitor 50 μM); 24 (2) % in [3] (inhibitor 100 μM); 73 (1) % in data set [4] (inhibitor 5 μM). Also, the “residual metabolism (% of control), 2ME2 MG1” value is listed as 58 (1) % in [4] (inhibitor 10 μM), 31 (3) % in data set [4] (inhibitor 25 μM), 17 (0) % in [4] (inhibitor 50 μM) and 12 (0) % in data set [4] (inhibitor 100 μM). Besides, the “residual metabolism (% of control), 2ME2 MG2” value in [2] (inhibitor 5 μM) was 98 (1) %; in data set [2] (inhibitor 10 μM) it was 88 (0) %; in [3] (inhibitor 25 μM), 70 (0) %; in [3] (inhibitor 50 μM) it was 41 (2) %; in data set [3] (inhibitor 100 μM) it was 20 (1) %. Moreover, the AUC(0-t) in the data set “in vivo” (Raloxifene AUC0-8) worked out at 77 ± 61 ng·h/mL; in “in vivo” (Raloxifene AUC0-24) it was 114 ± 90 ng·h/mL. The “solubility in the microsomal incubation” value in [5] (500 μM) was “insoluble”. The solubility in data set [5] (microsomal incubation mixtures) worked out at 100 µM (≈ 47.4 µg/mL).
Consider `Cc1cn([C@H]2C[C@H](N=[N+]=[N-])[C@@H](CO)O2)c(=O)[nH]c1=O` [Zidovudine, zidovudine, reference compound], for which the “% of control metabolism (SD, n = 3), 7-HFC glucuronidation” value in data set [6] is 99 (1) %. Also, in data set [7], the “% of control metabolism (SD, n = 3), raloxifene glucuronide G1” value is 93 (3) % and the “% of control metabolism (SD, n = 3), raloxifene glucuronide G2” value is listed as 93 (1) %. Also, in the data set on human liver microsomes [8], the Km is 3000 to 5000 µM. Also, the absolute oral bioavailability in [9] is 65% and 52-75%.
With `COc1cc2c(cc1O)CC[C@@H]1[C@@H]2CC[C@]2(C)[C@@H](O)CC[C@@H]12` [2ME2, 2-Methoxyestradiol], the “NADPH-dependent metabolism, in words” value in the data set on cytochrome(s) P450 is reported as “Negligible NADPH-dependent metabolism”. Moreover, in the data set with human liver microsomes [10] (50 μM substrate), the “total loss of 2ME2 from liver microsomal incubation after 60 min” value was found to be 42%. The “substrate loss, 2ME2” value is recorded as 1,573 ± 243 pmol/min/mg in the data set with human liver microsomes [10] (liver lot 032101, 250 μg/ml); 1,035 ± 52 pmol/min/mg in the data set with human liver microsomes [10] (liver lot 062101, 250 μg/ml); 19,797 ± 631 pmol/min/mg in [11].
